The record followed here is patent US8604023B2, “1,4-benzodiazepinone compounds and their use in treating cancer” (The Regents of the University of Michigan, priority 2009, dated 2013).

In general, EC50 refers to the concentration that produces a half-maximal response. High values mean a less potent agent, low ones a more potent agent.

This experiment deals with Ramos cells. The experiment is described as follows: cytotoxicity in Ramos cells. In kind it is cell-based. The following applies: Homo sapiens. How it is done:
The compounds listed in Table 5 were tested for cytotoxicity in Ramos cells. The assay was conducted as described in K. M. Johnson et al. Chemistry & Biology 2005, 12, 485-496.
In the case of `CC(=O)OCC(=O)Nc1ccc(C2=NC(Cc3ccc4ccccc4c3)C(=O)N(C)c3ccc(Cl)cc32)cn1` (stereo not drawn) [Compound V-14], the EC50 was ≤ 5 µM.

As for `CN1C(=O)C(Cc2ccc3ccccc3c2)N=C(N2CCC(N)CC2)c2cc(Cl)ccc21` (stereo not drawn) [Compound V-6], the 50% effective concentration (EC50) was in the range of 5 to 25 µM.

Consider `CN1C(=O)C(Cc2ccc3ccccc3c2)N=C(N2CCC(O)CC2)c2cc(Cl)ccc21` (stereo not drawn) [Compound V-1], for which the EC50 was ≥ 25 µM.

For the compound `CN1C(=O)C(Cc2ccc3ccccc3c2)N=C(c2ccc(NC(=O)CO)nc2)c2cc(Cl)ccc21` (stereo not drawn) [Compound V-15], the EC50 is 5 to 25 µM.

On to `O=C1CCN(C2=NC(Cc3ccc4ccccc4c3)C(=O)Nc3ccc(Cl)cc32)CC1` (stereo not drawn) [Compound V-7], for which the EC50 fell in the range of 5 to 25 µM.

`O=C1Nc2ccc(Cl)cc2C(c2ccc(N3CCC(O)CC3)nc2)=NC1Cc1ccccc1Cl` (stereo not drawn) [Compound V-27]: the half-maximal effective concentration (EC50) was ≤ 5 µM.

Consider `CN1C(=O)C(Cc2ccc3ccccc3c2)N=C(c2ccc(N)cn2)c2cc(Cl)ccc21` (stereo not drawn) [Compound V-11], for which the half-maximal effective concentration (EC50) is ≤ 5 µM.

In the case of `CN1CCN(c2ccc(C3=NC(Cc4ccccc4Cl)C(=O)Nc4ccc(Cl)cc43)cn2)CC1` (stereo not drawn) [Compound V-26], the EC50 was ≤ 5 µM.

Consider `CN1C(=O)C(Cc2ccc3ccccc3c2)N=C(N2CCC(NC(=O)c3ccccc3)CC2)c2cc(Cl)ccc21` (stereo not drawn) [Compound V-13], for which the EC50 is ≥ 25 µM.

Compound `Cc1n[nH]cc1C1=NC(Cc2ccccc2Cl)C(=O)Nc2ccc(Cl)cc21` (stereo not drawn) [Compound V-40] returned an EC50 of 5 to 25 µM.

For the compound `O=C1Nc2ccc(Cl)cc2C(c2ccncc2)=NC1Cc1ccccc1Cl` (stereo not drawn) [Compound V-19], the concentration giving a half-maximal response (EC50) was in the range of 5 to 25 µM.

In the case of `O=C1Nc2ccc(Cl)cc2C(c2ccc(N3CC[C@@H](O)C3)nc2)=NC1Cc1ccccc1Cl` (stereo partly drawn) [Compound V-32], the EC50 is 5 to 25 µM.

The compound `CC(=O)NC1CCN(C2=NC(Cc3ccc4ccccc4c3)C(=O)N(C)c3ccc(Cl)cc32)CC1` (stereo not drawn) [Compound V-12] displayed a half-maximal effective concentration (EC50) of 5 to 25 µM.

Turning to `O=C1Nc2ccc(Cl)cc2C(c2cn[nH]c2)=NC1Cc1ccccc1Cl` (stereo not drawn) [Compound V-37], the 50% effective concentration (EC50) was 5 to 25 µM.

In turn, `COCCNc1ccc(C2=N[C@@H](Cc3ccccc3Cl)C(=O)Nc3ccc(Cl)cc32)cn1` [Compound V-34] returned a concentration for a half-maximal effect (EC50) of 5 to 25 µM.

Take `O=C1Nc2ccc(Cl)cc2C(c2ccc(N3CCOCC3)nc2)=NC1Cc1ccccc1Cl` (stereo not drawn) [Compound V-28]: the EC50 was ≤ 5 µM.

Take `COCCNc1ccc(C2=NC(Cc3ccccc3Cl)C(=O)Nc3ccc(Cl)cc32)cn1` (stereo not drawn) [Compound V-33]: the concentration for a half-maximal effect (EC50) lay in the range of 5 to 25 µM.

`CC(=O)Nc1ccc(C2=NC(Cc3ccccc3Cl)C(=O)Nc3ccc(Cl)cc32)cn1` (stereo not drawn) [Compound V-17] had an EC50 of 5 to 25 µM.

As to `CN1C(=O)C(Cc2ccc3ccccc3c2)N=C(c2ccc(N)nc2)c2cc(Cl)ccc21` (stereo not drawn) [Compound V-2], the EC50 lay within 5 to 25 µM.

Take `CN1C(=O)C(Cc2ccc3ccccc3c2)N=C(c2cnc(N)cn2)c2cc(Cl)ccc21` (stereo not drawn) [Compound V-3]: the concentration for a half-maximal effect (EC50) is ≥ 25 µM.

The compound `Nc1ncc(C2=NC(Cc3ccccc3Cl)C(=O)Nc3ccc(Cl)cc32)cn1` (stereo not drawn) [Compound V-20] displayed an EC50 of 5 to 25 µM.

As for `CC(=O)N1CCN(c2ccc(C3=NC(Cc4ccccc4Cl)C(=O)Nc4ccc(Cl)cc43)cn2)CC1` (stereo not drawn) [Compound V-30], the concentration for a half-maximal effect (EC50) is ≤ 5 µM.

Compound `O=C1Nc2ccc(Cl)cc2C(c2cnc3[nH]c(=O)[nH]c3c2)=NC1CCc1ccccc1Cl` (stereo not drawn) [Compound V-35] showed an EC50 of 5 to 25 µM.

As to `CN1C(=O)C(Cc2ccc3ccccc3c2)N=C(c2csc(CO)n2)c2cc(Cl)ccc21` (stereo not drawn) [Compound V-16], the 50% effective concentration (EC50) was ≤ 5 µM.

`O=C1Nc2ccc(Cl)cc2C(c2ccc(N3CCCC3)nc2)=NC1Cc1ccccc1Cl` (stereo not drawn) [Compound V-31]: the EC50 is ≤ 5 µM.

Turning to `COc1ccc(C2(O)CCN(C3=NC(Cc4ccc5ccccc5c4)C(=O)Nc4ccc(Cl)cc43)CC2)cc1` (stereo not drawn) [Compound V-8], the EC50 was ≤ 5 µM.

With `Nc1ccc(C2=NC(Cc3ccccc3Cl)C(=O)N(C3CC3)c3ccc(Cl)cc32)cn1` (stereo not drawn) [Compound V-36], the EC50 lay in the range of 5 to 25 µM.

On to `Nc1ccc(C2=NC(Cc3ccccc3Cl)C(=O)Nc3ccc(Cl)cc32)cn1` (stereo not drawn) [Compound V-18], for which the EC50 is 5 to 25 µM.

For `O=C1Nc2ccc(Cl)cc2C(c2cn[nH]c2)=NC1Cc1ccc2ccccc2c1` (stereo not drawn) [Compound V-39], the half-maximal effective concentration (EC50) is ≤ 5 µM.

With `CN1C(=O)C(Cc2ccc3ccccc3c2)N=C(N2CCC3(CC2)OCCO3)c2cc(Cl)ccc21` (stereo not drawn) [Compound V-5], the half-maximal effective concentration (EC50) was ≤ 5 µM.

Turning to `CN1C(=O)C(Cc2ccc3ccccc3c2)N=C(N2CCC(NC(=O)OC(C)(C)C)CC2)c2cc(Cl)ccc21` (stereo not drawn) [Compound V-9], the EC50 was ≥ 25 µM.

As to `Nc1cncc(C2=NC(Cc3ccccc3Cl)C(=O)Nc3ccc(Cl)cc32)c1` (stereo not drawn) [Compound V-22], the 50% effective concentration (EC50) is ≥ 25 µM.

Turning to `CN1C(=O)C(Cc2ccc3ccccc3c2)N=C(N2CCC(NC(=O)CN)CC2)c2cc(Cl)ccc21` (stereo not drawn) [Compound V-10], the 50% effective concentration (EC50) is ≤ 5 µM.

In the case of `O=C1Nc2ccc(Cl)cc2C(c2ccnc(N3CCNCC3)c2)=NC1Cc1ccccc1Cl` (stereo not drawn) [Compound V-25], the EC50 was in the range of 5 to 25 µM.

Take `O=C1Nc2ccc(Cl)cc2C(c2cnc3[nH]c(=O)[nH]c3c2)=NC1Cc1ccccc1Cl` (stereo not drawn) [Compound V-24]: the EC50 was ≤ 5 µM.

In turn, `Nc1ccc(C2=NC(Cc3ccc4ccccc4c3)C(=O)Nc3ccc(Cl)cc32)cn1` (stereo not drawn) [Compound V-4] came in with a concentration for a half-maximal effect (EC50) of 5 to 25 µM.

Turning to `Cc1n[nH]c(C)c1C1=NC(Cc2ccccc2Cl)C(=O)Nc2ccc(Cl)cc21` (stereo not drawn) [Compound V-41], the EC50 lay within 5 to 25 µM.

The compound `CCc1ccc(CC2N=C(c3cnc(N)nc3)c3cc(Cl)ccc3NC2=O)cc1CC` (stereo not drawn) [Compound V-21] registered an EC50 of 5 to 25 µM.

Turning to `O=C1Nc2ccc(Cl)cc2C(c2ccc(N3CCC(CO)CC3)nc2)=NC1Cc1ccccc1Cl` (stereo not drawn) [Compound V-29], the half-maximal effective concentration (EC50) was ≤ 5 µM.
